These results are taken from patent publication US20030003451A1, “Novel G protein-coupled receptors” (priority 2000, published 2003).

Several values for one entry are separate records, joined by “and”; a condition that tells them apart may be missing. Identical values can stand only once.

One may read the EC50 as the concentration at which the effect is half-maximal.

For experiment [1] the following is noted: in vivo; cited from earlier work.
In another experiment the test system is SLC-1 gene product. To be noted: cited from earlier work.
The conditions of experiment [2]: central injections in rats; cited from earlier work.
For experiment [3] the following is noted: injections into the medial preoptic area of the hypothalamus of rats; cited from earlier work.
Experiment [4] deals with T1, nGPCR-51 (Homo sapiens, UniProt Q969V1).
T1 construct: expressed in transfected cells
T1 sequence (Q969V1 whole entry): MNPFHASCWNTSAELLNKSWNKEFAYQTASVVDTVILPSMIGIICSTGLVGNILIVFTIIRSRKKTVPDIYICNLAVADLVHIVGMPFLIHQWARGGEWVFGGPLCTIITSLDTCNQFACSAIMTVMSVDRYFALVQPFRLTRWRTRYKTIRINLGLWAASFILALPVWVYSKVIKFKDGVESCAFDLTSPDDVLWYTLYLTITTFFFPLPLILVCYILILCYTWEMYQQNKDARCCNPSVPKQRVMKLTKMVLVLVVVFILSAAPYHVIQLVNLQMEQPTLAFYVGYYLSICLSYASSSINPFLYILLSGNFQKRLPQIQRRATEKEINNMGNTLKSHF
Kind of experiment: Aequorin luminescence assay, COS 7 cells co-transfected with nGPCR-51 and mtAequorin. To be noted: nGPCR-51 expressing COS 7 cells. Type of experiment: cell-based. How it is done:
Agonist activation of receptors that couple to the Gq subtype of G proteins will lead to the release of intracellular calcium. The photoprotein aequorin emits a characteristic luminescence in the presence of calcium and may be expressed in cells along with the receptor of interest in order to report agonist signalling. Peptide A was tested for the ability to activate nGPCR-51 using an assay for aequorin. Peptide A, a cyclic peptide via a disulfide bond between the Cys residues, has the following amio acid sequence: Asp Phe Asp Met Leu Arg Cys Met Leu Gly Arg Val Tyr Arg Pro Cys Trp Gln Val (SEQ ID NO: 183). Preferably, Peptide A is used in a solution containing 0.17M acetic acid, or the like, and a stabilizer such as a 0.2% BSA:acetonitrile 90:10. […] After the coelenterazine loading incubation, the cells are counted and diluted to 1×10^6 cells/ml in assay buffer. […] The instrument is programmed to dispense 50 μl cell suspension into each well, one well at a time, and immediately read luminescence for 20 seconds. […] Data are analyzed with SlideWrite, using the equation y=a^0*a^1/(x+a^1)+a^2 where a^0 is the maximum response minus the baseline; a^1 is the EC50; and a^2 is the […].

The conditions of experiment [5]: intracerebroventricular injection, rats; cited from earlier work.
For experiment [6] the following is noted: intracerebroventricular injection; cited from earlier work.
Experiment [7] addresses T1, nGPCR-51. As to the kind of experiment: NFkB-Luciferase reporter gene assay, nGPCR-51 (Seq51)-transfected N7 (HOS) cells. Format: cell-based. To be noted: 5-hr incubation, 2 separate experiments, read-out: EC50, luciferase expression. Here is the method: nGPCR-51 was transfected in N7 cells, stable HOS (human osteosarcoma) cells expressing NFkB-Luciferase reporter gene Briefly, LipofectAMINE, PLUS reagent, and 4 μg DNA were added to cells in Opti-MEM. After 4 hours, serum-containing medium was added to each plate. Twenty-four hour after transfection the cells were trypsinized and seeded in COSTAR white 96-well plate at a cell density of about 20,000 cells per well. Another 24 hours later the culture medium was replaced with fresh growth medium and Peptide A was added. After 5-hr incubation with Peptide A, the medium was aspirated and 100 μL diluted Steady Glo was added. The plates were gently shake at room temperature for 30 minutes and luminescence determined by TopCount at the SPC mode.
A general note: A reporter such as luciferase makes a cellular process visible.

A further experiment relates to vector-transfected cells. As to the kind of experiment: Intracellular calcium measurement using FLIPR, empty vector control HEK293 cells. The note with it: 0.03 pM-10 nM. Type of experiment: cell-based, human. Here is the method:
(§1) HEK293 cells were transiently transfected with an expression vector for nGPCR-51 and empty vector using Lipofectamine plus (Gibco) according to the manufacturer's instructions. The next day, the cells were seeded into 96-well plates at 25,000 cells per well. The following day, cells were loaded with 1 uM Fluo-4-acetoxymethyl fluorescent indicator dye (Molecular Probes) in MEM (minimal essential media) containing 0.1% bovine serum albumin, 0.04% pluronic acid and 2.5 mM probenecid for 30 minutes at 37 C. The cells were washed with pre-warmed (37 C.) assay buffer (Hanks buffer containing 15 mM HEPES, 2.5 mM probenecid and 0.1% bovine serum albumin). Assay buffer (100 ul) was added to each well and plates were incubated at 37 C. for 15 minutes. Various concentrations (0.03 pM-10 nM) of human Peptide A or salmon Peptide B were added and fluorescence produced by fluo-4 (a calcium sensitive dye) was measured every second for 150 seconds on a fluorometric imaging plate reader (FLIPR1; Molecular Devices). Human Peptide A and salmon Peptide B-induced calcium mobilization in nGPCR-51-transfected cells with EC50 values of 3 nM and 6 nM, respectively. Human Peptide A and salmon Peptide B had no effect on vector-transfected cells.
On the technique in general: Calcium flux is commonly read through the fluorescence of an indicator in the cells.

Experiment [8] has as its target T1, nGPCR-51. As to the kind of experiment: Intracellular calcium measurement using FLIPR, nGPCR-51-transfected HEK293 cells. Type of experiment: cell-based. The note with it: fluo-4, FLIPR, read-out: EC50, calcium mobilization. How it is done:
as §1

The conditions of experiment [9]: injections of the peptide; cited from earlier work.
Another experiment has as its system Untransfected cells. Kind of experiment: Radioligand binding assay, untransfected cells.
The target of experiment [10] is T1, nGPCR-51. As to the kind of experiment: Radioligand saturation binding assay, membranes of cells transiently expressing nGPCR-51. Here is the method:
HEK 293 or COS 7 cells transiently expressing nGPCR-51, or CHO K-I cells stable expressing nGPCR-51, were grown to sub-confluence (2 days post-transfection for transients), harvested from flasks in Dulbecco's PBS and pelleted by low speed centrifugation (2500 rpm) for 10 minutes. Cell pellets were homogenized in 10 ml tissue buffer (50 mM Hepes, 10 mM MgCl2, 2 mM EGTA, 1 μg/ml aprotinin, 1 μg/ml leupeptin hemisulfate, 1 μg/ml pepstatin A, pH 7.0) using a dounce, 10 strokes. Homogenate was centrifuged at 47,000× g for 15 minutes. Membrane pellet was resuspended in 1 ml tissue buffer using the dounce, 10 strokes. An aliquot of the membrane preparation was used to determine protein concentration. For measurement of saturation binding, 10 μg of cell membranes were incubated with various concentrations of [^125I] Peptide A (iodinated by routine procedures via the Tyr residue) in 300 μl binding assay buffer (tissue buffer plus 0.15 mM Bacitracin and 0.1% ovalbumin) for 90 minutes at room temperature in 96-well plates. Non-specific binding was defined by the inclusion of 1 μM Peptide A. After the binding incubation, plates were harvested onto GF/C filters presoaked in 0.3% non-fat dry milk. […] Filter plates were then counted in a Packard Topcount™ 96-well microplate scintillation counter. Data were analyzed using GraphPad Prism (San Diego, Calif.) and Kd and Bmax values were calculated.

`CSCC[C@@H]1NC(=O)[C@@H](NC(=O)[C@H](CCCNC(=N)N)NC(=O)[C@H](CC(C)C)NC(=O)[C@H](CCSC)NC(=O)[C@H](CC(=O)O)NC(=O)[C@H](Cc2ccccc2)NC(=O)[C@@H](N)CC(=O)O)CSSC[C@@H](C(=O)N[C@@H](Cc2c[nH]c3ccccc23)C(=O)N[C@@H](CCC(N)=O)C(=O)N[C@H](C(=O)O)C(C)C)NC(=O)[C@@H]2CCCN2C(=O)[C@H](CCCNC(=N)N)NC(=O)[C@H](Cc2ccc(O)cc2)NC(=O)[C@H](C(C)C)NC(=O)[C@H](CCCNC(=N)N)NC(=O)CNC(=O)[C@H](CC(C)C)NC1=O` [Peptide A, Asp Phe Asp Met Leu Arg Cys Met Leu Gly Arg Val Tyr Arg Pro Cys Trp Gln Val]: the passive avoidance performance entry in [1] is given as “alter passive avoidance performance”. Moreover, the “activation of SLC-1 G-protein coupled receptor” value in the experiment on SLC-1 gene product was “potently activated”. Moreover, in [2], the “peak circadian ACTH levels” value was “reduction in peak circadian ACTH levels” and the “stress-induced ACTH secretion” value is reported as “inhibit stress-induced ACTH secretion”. Also, the “time spent in open arms, elevated plus maze” value in [3] is “decreases in time spent in open arms”. Besides, at nGPCR-51 [4], the concentration for a half-maximal effect (EC50) is around 40 nM and the “maximum response, aequorin luminescence” value is 52 fold over baseline. Further, in [5], the food intake entry is “increase in food intake”. For the same molecule, in experiment [6], the “conditioning amplitude of the second of a pair of auditory evoked potentials recorded from the hippocampus” value is reported as “decrease in the conditioning amplitude” and the “effect on increases in the conditioning amplitude induced by alpha MSH” value is “reverses the increases in the conditioning amplitude”. On nGPCR-51 [7], the concentration for a half-maximal effect (EC50) was 1.6 nM and 1.7 nM. In addition, the “effect on calcium mobilization in vector-transfected cells” value with vector-transfected cells is recorded as “no effect”. The concentration for a half-maximal effect (EC50) on nGPCR-51 [8] was found to be 3 nM. In addition, the female sexual receptivity result in experiment [9] was “stimulated female sexual receptivity”.
For `CSCC[C@@H]1NC(=O)[C@@H](NC(=O)[C@H](CCCNC(=N)N)NC(=O)[C@H](CC(C)C)NC(=O)[C@H](CCSC)NC(=O)[C@H](CC(=O)O)NC(=O)[C@H](Cc2ccccc2)NC(=O)[C@@H](N)CC(=O)O)CSSC[C@@H](C(=O)N[C@@H](Cc2c[nH]c3ccccc23)C(=O)N[C@@H](CCC(N)=O)C(=O)N[C@H](C(=O)O)C(C)C)NC(=O)[C@@H]2CCCN2C(=O)[C@H](CCCNC(=N)N)NC(=O)[C@H](Cc2ccc(O)c(I)c2)NC(=O)[C@H](C(C)C)NC(=O)[C@H](CCCNC(=N)N)NC(=O)CNC(=O)[C@H](CC(C)C)NC1=O` [[^125I] Peptide A], the specific radioligand binding entry with Untransfected cells is “no specific radioligand binding”. The same molecule displayed a Bmax at nGPCR-51 [10] (COS 7 cells transiently expressing nGPCR-51) of 75 finol/mg. Moreover, the “estimated Bmax” value at nGPCR-51 [10] (HEK 293 cells transiently expressing nGPCR-51) is around 108 fmol/mg.
